The record followed here is patent US11987559B1, “1-(4-bromobenzylideneamino)-5-phenylimidazolidine-2,4-dione as an antimicrobial compound” (KING FAISAL UNIVERSITY, priority 2023, dated 2024).

What all share (type): cell-based
Test [1] relates to Aspergillus flavus. Kind of test: agar plate disc-diffusion, antifungal inhibition zone. Conditions: Sabouraud's dextrose agar, 72 hours. As to the method:
(§1) The agar plate disc-diffusion method was applied. […] The discs were then placed onto the surface of agar plates (nutrient agar for bacteria and Sabouraud's dextrose agar for fungi) seeded with the test organism. Each plate contained 15 mL of the agar medium, previously seeded with 0.2 mL of the broth culture of each organism pregrown for 18 hours. The plates were incubated at 37° C. for 48 hours, and 72 hours for fungi. The inhibition zones were measured in millimeters (mm). Discs impregnated with DMSO were used as a control, and its inhibition zone was subtracted from the tested compound's actual inhibition zone.
A general note: A growth-free zone around the sample is the usual read-out of agar diffusion tests.

For test [2], the system named is Chrysosporium keratinophilum. The test is described as above. The following applies: Sabouraud's dextrose agar, 72 hours. On the procedure: as §1
In test [3] the test system is Pseudomonas aeruginosa. Kind of test: agar plate disc-diffusion, antibacterial inhibition zone. Conditions: nutrient agar, 37° C., 48 hours. As to the method: as §1
Test [4] relates to Staphylococcus aureus. The description is as above. Conditions: nutrient agar, 37° C., 48 hours. On the procedure:
as §1

Test [5] deals with Bacillus cereus. The description is as above. The following applies: nutrient agar, 37° C., 48 hours. As to the method:
as §1

The test system of test [6] is Escherichia coli. The test is described as above. The following applies: nutrient agar, 37° C., 48 hours. As to the method:
as §1

Test [7] relates to different microbes. The test is described as follows: antimicrobial testing, overall statement. Conditions: result in words; bacteria and fungi of tables 1, 2. On the procedure: The agar plate disc-diffusion method was applied. Sterilized filter papers (6 mm in diameter) were wetted with 10 μL of a solution of 1-(4-bromobenzylideneamino)-5-phenylimidazolidine-2,4-dione (4) to be tested, containing 10 mg/mL in DMSO, and the discs were allowed to air dry. The discs were then placed onto the surface of agar plates (nutrient agar for bacteria and Sabouraud's dextrose agar for fungi) seeded with the test organism. Each plate contained 15 mL of the agar medium, previously seeded with 0.2 mL of the broth culture of each organism pregrown for 18 hours. The plates were incubated at 37° C. for 48 hours, and 72 hours for fungi. The inhibition zones were measured in millimeters (mm). Discs impregnated with DMSO were used as a control, and its inhibition zone was subtracted from the tested compound's actual inhibition zone.

The mark [8] stands for this setting: A = concentration of comp. = 10,000 μL.
Setting [9] is: B = concentration of comp. = 30.000 μL.
[10] abbreviates: C = concentration of comp. = 50,000 μL.

Molecules are shown by their SMILES.

Take `O=C1NC(=O)N(/N=C/c2ccc(Br)cc2)C1c1ccccc1` (stereo not shown) [Compound 4, 1-(4-bromobenzylideneamino)-5-phenylimidazolidine-2,4-dione]: the inhibition zone amounted to 19 mm in test [1] (setting [8]); 24 mm in test [1] (setting [9]); 35 mm in test [1] (setting [10]); 26 mm in test [2] (setting [8]); 29 mm in test [2] (setting [9]); 45 mm in test [2] (setting [10]). For the same compound, the inhibition zone is given as 23 mm in test [3] (setting [8]); 27 mm in test [3] (setting [9]); 34 mm in test [3] (setting [10]); 15 mm in test [4] (setting [8]); 23 mm in test [4] (setting [9]); 26 mm in test [4] (setting [10]). Besides, the inhibition zone in test [5] (setting [8]) is on record as 27 mm; in test [5] (setting [9]), 29 mm; in test [5] (setting [10]) it was 28 mm; in test [6] (setting [8]) it was 24 mm; in test [6] (setting [9]), 30 mm; in test [6] (setting [10]), 48 mm. Moreover, the “antimicrobials activities against different microbes” value in test [7] is “excellent”.

For the compound `O=C(O)c1cn(C2CC2)c2cc(N3CCNCC3)c(F)cc2c1=O` [Cip., reference compound], the inhibition zone in test [1] (setting [8]) is 29 mm; in test [1] (setting [9]), 30 mm; in test [1] (setting [10]), 42 mm; in test [2] (setting [8]) it was 29 mm; in test [2] (setting [9]), 30 mm; in test [2] (setting [10]) it was 53 mm. The inhibition zone in test [3] (setting [8]) amounted to 29 mm; in test [3] (setting [9]), 30 mm; in test [3] (setting [10]) it was 53 mm; in test [4] (setting [8]) it was 43 mm; in test [4] (setting [9]), 44 mm; in test [4] (setting [10]) it was 53 mm. The inhibition zone turned out to be 29 mm in test [5] (setting [8]); 30 mm in test [5] (setting [9]); 42 mm in test [5] (setting [10]); 30 mm in test [6] (setting [8]); 39 mm in test [6] (setting [9]); 60 mm in test [6] (setting [10]).
